In patent publication EP2662079A1 (Ordway Research Institute, Inc., priority 2012, dated 2013):

Legend:
U87MG cells = experiment: Clonogenic survival after 250 kVp x-irradiation; assay type: cell-based, human
Experimental: To irradiate culture flasks, a Philips 250 kVp x-ray machine (Philips Corp., Fall River, MA) operated at 250 kVp and 15 mA with added filtration of a 0.4 mm Thoreaus filter was used. The target to source distance was 30 cm. Dose rates were measured using an R-meter (Victoreen Co., Cleveland, OH), and converted to absorbed (Gy) doses using appropriate temperature, pressure, and R to Gy conversion factors. The dose rate was approximately 1 Gy/min. Flasks were irradiated after being taken from a 37°C environment and moved to the x-ray source. Movement at ambient temperature took approximately 1-2 min. Cells were next placed on ice and allowed to cool for 5 min. Lastly, flasks were placed in the Philips irradiator on top of a 2 mm thickness of Lucite which was on top of a layer of crushed ice. […]
For SHMT analysis, data lying at or below a fractional survival (FxS) value of 0.368 were fit using a linear regression analysis of the log survival data versus linear dose. From this fit the extrapolation number (n), the quasi-threshold dose (Dq, Gy) and the inverse of the inactivation slope (Do, Gy) were derived.
For LQ analyses, survival data lying between the fractional survivals of 1.00 and 0.05 were used. The log survival data were transformed to a linear form using the relationship (- ln FxS/D) and plotted against D. A linear regression analysis was performed to yield the LQ equation along with the 95% confidence limits on the γ-intercept (alpha) and the slope (beta) using a t-table with the appropriate (N-1) degrees of freedom. (See Goldstein A. Biostatistics, Academic Press, 1995.)

MDA-MB-231 cells = experiment: Cell proliferation in perfusion bellows cell culture system; assay type: cell-based; conditions: Homo sapiens, 10^-6 M (Tetrac equivalent), added at day 0, by day 9
Experimental: Tetrac and nanoparticulate Tetrac. Tetrac was custom-synthesized by Peptido GMBH (Bembach, Germany). The proprietary Tetrac nanoparticle was custom-synthesized by covalently-bonding of the outer ring hydroxyl of Tetrac to PLGA via an intervening linker. […] Cell culture for definition of effects of Tetrac formulations on tumor cell proliferation. MDA-MB-231 cells were purchased from ATCC (Manassas, VA). Cells were maintained until use in DMEM that contained 10% FBS. The incubator conditions were 5% CO2/95% 02 and 37° C. The action of unmodified Tetrac and nanoparticulate on MDA-MB-231 cells was determined in a perfusion bellows cell culture system we have recently described for quantitating pharmaceutical agent pharmacodynamics in vitro. (See Lin et al., J Steroid Biochem Mol Biol 113: 182-188 (2009)). In brief, the cell culture system is a disposable bioreactor capable of high density cell culture for studies of anti-cancer drugs. Bellows-induced alternate flow of culture medium and air through porous matrices where cells are grown provides a relatively low shear, high aeration, foam-free culture environment. Medium level is raised and lowered to submerge and expose matrices to create a dynamic interface between air and media on the cell surface. […] Flakes thereafter were sampled at regular intervals (Figure 44), subjected to trypsinization and the harvested cells counted. […]

GL261 tumor cells = experiment: 44°C hyperthermia survival; assay type: cell-based, murine
Experimental: Additionally, Tetrac sensitizes GL261 cells in hyperthermic conditions. Graded heat treatment of GL261 tumor cells with 44°C was given, without and with Tetrac. Tetrac increased cell killing as compared to control cells alone, by the equivalent of about 1°C (i.e., 44°C plus Tetrac is the equivalent of 45°C without Tetrac). (See Figure 63).

O=C(O)Cc1cc(I)c(Oc2cc(I)c(O)c(I)c2)c(I)c1 [Tetrac, 3,3',5,5'-tetraiodothyroacetic acid]
increase of α (ratio of the alpha values) (U87MG cells): 3.6 fold
increase of β (U87MG cells): 4.8 fold
median sensitization factor (U87MG cells): 3.6
ratio of relative survival values at 2 Gy (U87MG cells): 4.6
reduction of the DQ value (U87MG cells): 100%
reduction of the Do value (U87MG cells): 31%
α (U87MG cells; LQ, Tetrac treated cells): 0.817 (± 0.091)
β (U87MG cells; LQ, Tetrac treated cells): 0.076 (± 0.006)
DQ (Gy) (U87MG cells; SHMT, Tetrac treated cells): 0.00 ± 0.22 Gy
Do (Gy) (U87MG cells; SHMT, Tetrac treated cells): 1.09 ± 0.36 Gy
relative survival at 2 Gy (U87MG cells; Tetrac treated cells (control 59.6)): 12.8
isoeffect comparison ratio (U87MG cells; at 10% survival): 2.2
average sensitization factor (U87MG cells; average of 3 comparisons, range of 2.2 to 4.6): 3.5
inhibition at 1 µM (MDA-MB-231 cells): > 30%
increase in cell killing as temperature equivalent (GL261 tumor cells; 44°C plus Tetrac): about 1 °C
sensitization factor (GL261 tumor cells; Tetrac 2uM, 20 minutes at 44°C): 3.8
